Earlier results, collected in patent US9682072B2, “Compositions and methods for treatment of lung dysfunction” (Children's Hospital Medical Center, priority 2015, dated 2017).

Key:
[1] = tested on: ovalbumin-induced lung inflammation; conditions: mouse, in vivo
FOXM1 = target: T1, FOXM1 (Homo sapiens, UniProt Q08050)
T1 sequence (Q08050 1-763): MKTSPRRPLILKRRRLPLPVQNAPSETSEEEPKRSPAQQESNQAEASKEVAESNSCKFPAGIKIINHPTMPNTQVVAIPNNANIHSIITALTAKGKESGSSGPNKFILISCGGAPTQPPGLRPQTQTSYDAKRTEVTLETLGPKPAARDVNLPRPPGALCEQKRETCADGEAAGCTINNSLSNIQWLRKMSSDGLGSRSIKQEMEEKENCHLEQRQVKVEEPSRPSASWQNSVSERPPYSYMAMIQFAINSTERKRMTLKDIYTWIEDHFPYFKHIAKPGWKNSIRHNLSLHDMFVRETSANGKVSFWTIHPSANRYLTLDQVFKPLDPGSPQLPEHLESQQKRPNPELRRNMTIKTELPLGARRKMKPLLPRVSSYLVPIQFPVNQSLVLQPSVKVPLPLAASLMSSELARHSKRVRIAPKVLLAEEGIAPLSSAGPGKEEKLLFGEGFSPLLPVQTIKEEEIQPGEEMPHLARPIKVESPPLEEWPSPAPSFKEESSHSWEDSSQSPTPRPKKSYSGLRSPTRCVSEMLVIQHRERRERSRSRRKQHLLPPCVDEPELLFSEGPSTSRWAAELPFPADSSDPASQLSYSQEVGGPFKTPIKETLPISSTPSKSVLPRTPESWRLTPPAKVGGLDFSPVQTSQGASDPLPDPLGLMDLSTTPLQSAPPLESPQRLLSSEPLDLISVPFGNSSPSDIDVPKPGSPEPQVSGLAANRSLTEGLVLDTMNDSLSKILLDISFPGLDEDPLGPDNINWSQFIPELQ

| binding of FOXM1 to its target DNA (FOXM1) | Compound | ovalbumin-induced lung inflammation [1] |
| --- | --- | --- |
| – | N#CC(=C(/N)Sc1ccccc1N)/C(C#N)=C(\N)Sc1ccccc1N [Compound U0126] | diminished |
| inhibits | Nc1c(C(=O)Nc2ccc(F)cc2)sc2nc(-c3cccs3)cc(C(F)(F)F)c12 [FDI-6] | – |
